Laboratory results: patent US20190224166A1, “Compositions and Methods for Treating Muscle Loss” (Augusta University Research Institute, Inc., priority 2018, published 2019)

Test system: quadriceps muscle
Assay: Proteomic analysis of quadriceps muscle of aged mice treated with 1-methyl-D-tryptophan (Table 1, TOPPGENE enrichment)
Assay type: in vivo
Description: Female mice 22 months of age were obtained from the National Institute on Aging and treated with saline (vehicle) or 1-methyl-D-tryptophan (1-MT, Sigma, 452483, lot#MKBZ1441V) at a low dose (10 mg/kg BW) or at a high dose (100 mg/kg BW). Mice were treated daily for 4 weeks. Treatments were administered i.p. with an injection volume of 0.2 ml following IACUC approved procedures. Mice were euthanized by CO2 overdose and muscles harvested for analysis. One quadriceps muscle was snap frozen for proteomics and the other quadriceps muscle fixed in buffered formalin for paraffin embedding and trichrome staining. The tibialis anterior was placed in PBS for amplex red assay.
The IDO inhibitor, 1-methyl-D-tryptophan, blocks kynurenine production and reduces levels of ROS in muscle.

1MT vs Control: E3 ubiquitin-protein ligase UBR4 (A2AN08, GN = Ubr4): 0.5
1MT vs Control: Ryanodine receptor 1 (E9PZQ0, GN = Ryr1): 0.6614
1MT vs Control: Hexokinase-2 (O08528, GN = Hk2): 0.3158
1MT vs Control: Dihydrolipoyl dehydrogenase, mitochondrial (O08749, GN = Dld): 0.8444
1MT vs Control: Branched-chain-amino-acid aminotransferase, mitochondrial (O35855, GN = Bcat2): 0.5
1MT vs Control: Polymerase I and transcript release factor (O54724, GN = Ptrf): 0.9
1MT vs Control: Phosphoglycerate mutase 2 (O70250, GN = Pgam2): 0.8457
1MT vs Control: Aspartate aminotransferase, cytoplasmic (P05201, GN = Got1): 0.8115
1MT vs Control: Aspartate aminotransferase, mitochondrial (P05202, GN = Got2): 0.6944
1MT vs Control: Glucose-6-phosphate isomerase (P06745, GN = Gpi): 0.8424
1MT vs Control: Malate dehydrogenase, mitochondrial (P08249, GN = Mdh2): 0.915
1MT vs Control: Superoxide dismutase [Mn], mitochondrial (P09671, GN = Sod2): 0.45
1MT vs Control: Fatty acid-binding protein, heart (P11404, GN = Fabp3): 0.6667
1MT vs Control: Calcium/calmodulin-dependent protein kinase type II subunit alpha (P11798, GN = Camk2a): 0.4444
1MT vs Control: cAMP-dependent protein kinase type II-alpha regulatory subunit (P12367, GN = Prkar2a): 0.8333
1MT vs Control: Malate dehydrogenase, cytoplasmic (P14152, GN = Mdh1): 0.7895
1MT vs Control: Selenium-binding protein 1 (P17563, GN = Selenbp1): 0.625
1MT vs Control: Glutathione S-transferase P 1 (P19157, GN = Gstp1): 0.7436
1MT vs Control: Thioredoxin-dependent peroxide reductase, mitochondrial (P20108, GN = Prdx3): 0.6875
1MT vs Control: Leukotriene A-4 hydrolase (P24527, GN = Lta4h): 0.6667
1MT vs Control: Retinal dehydrogenase 1 (P24549, GN = Aldh1a1): 0.375
1MT vs Control: Glutamate dehydrogenase 1, mitochondrial (P26443, GN = Glud1): 0.75
1MT vs Control: 26S proteasome non-ATPase regulatory subunit 7 (P26516, GN = Psmd7): 0.8333
1MT vs Control: Adenylosuccinate synthetase isozyme 1 (P28650, GN = Adssl1): 0.8583
1MT vs Control: Pyruvate dehydrogenase E1 component subunit alpha, somatic form, mitochondrial (P35486, GN = Pdha1): 0.5714
1MT vs Control: Enoyl-CoA delta isomerase 1, mitochondrial (P42125, GN = Eci1): 0.3333
1MT vs Control: Medium-chain specific acyl-CoA dehydrogenase, mitochondrial (P45952, GN = Acadm): 0.75
1MT vs Control: Carnitine O-acetyltransferase (P47934, GN = Crat): 0.3913
1MT vs Control: ADP/ATP translocase 1 (P48962, GN = Slc25a4): 0.4561
1MT vs Control: Long-chain specific acyl-CoA dehydrogenase, mitochondrial (P51174, GN = Acadl): 0.3269
1MT vs Control: Isocitrate dehydrogenase [NADP], mitochondrial (P54071, GN = Idh2): 0.3684
1MT vs Control: Adenylosuccinate lyase (P54822, GN = Adsl): 0.5172
1MT vs Control: Adenosine kinase (P55264, GN = Adk): 0.4545
1MT vs Control: Serine/threonine-protein phosphatase PP1-beta catalytic subunit (P62141, GN = Ppp1cb): 0.2857
1MT vs Control: Nuclease-sensitive element-binding protein 1 (P62960, GN = Ybx1): 0.6
1MT vs Control: Guanine nucleotide-binding protein subunit beta-2-like 1 (P68040, GN = Gnb2l1): 0.8889
1MT vs Control: Histidine triad nucleotide-binding protein 1 (P70349, GN = Hint1): 0.8667
1MT vs Control: Isocitrate dehydrogenase [NAD] subunit gamma 1, mitochondrial (P70404, GN = Idh3g): 0.4286
1MT vs Control: Fructose-1,6-bisphosphatase isozyme 2 (P70695, GN = Fbp2): 0.6078
1MT vs Control: Histone-lysine N-methyltransferase Smyd1 (P97443, GN = Smyd1): 0.8143
1MT vs Control: Fumarate hydratase, mitochondrial (P97807, GN = Fh): 0.7414
1MT vs Control: Acyl-protein thioesterase 1 (P97823, GN = Lypla1): 0.5
1MT vs Control: AMP deaminase 1 (Q3V1D3, GN = Ampd1): 0.86
1MT vs Control: UDP-glucose: glycoprotein glucosyltransferase 1 (Q6P5E4, GN = Uggt1): 0.2857
1MT vs Control: Creatine kinase S-type, mitochondrial (Q6P8J7, GN = Ckmt2): 0.3977
1MT vs Control: Sodium/potassium-transporting ATPase subunit alpha-2 (Q6PIE5, GN = Atp1a2): 0.5143
1MT vs Control: Calcium-binding mitochondrial carrier protein Aralar1 (Q8BH59, GN = Slc25a12): 0.3939
1MT vs Control: EH domain-containing protein 2 (Q8BH64, GN = Ehd2): 0.5714
1MT vs Control: Dihydrolipoyllysine-residue acetyltransferase component of pyruvate dehydrogenase complex, mitochondrial (Q8BMF4, GN = Dlat): 0.6053
1MT vs Control: Trifunctional enzyme subunit alpha, mitochondrial (Q8BMS1, GN = Hadha): 0.561
1MT vs Control: Isoleucine--tRNA ligase, cytoplasmic (Q8BU30, GN = Iars): 0.75
1MT vs Control: Fructose-2,6-bisphosphatase TIGAR (Q8BZA9, GN = Tigar): 0.6944
1MT vs Control: Succinate dehydrogenase [ubiquinone] flavoprotein subunit, mitochondrial (Q8K2B3, GN = Sdha): 0.7037
1MT vs Control: 5-oxoprolinase (Q8K010, GN = Oplah): 0.75
1MT vs Control: Acetyl-CoA acetyltransferase, mitochondrial (Q8QZT1, GN = Acat1): 0.9231
1MT vs Control: Sarcoplasmic/endoplasmic reticulum calcium ATPase 1 (Q8R429, GN = Atp2a1): 0.9045
1MT vs Control: Carboxylesterase 1D (Q8VCT4, GN = Ces1d): 0.8571
1MT vs Control: G-protein coupled receptor 98 (Q8VHN7, GN = Gpr98): 0.6667
1MT vs Control: 2,4-dienoyl-CoA reductase, mitochondrial (Q9CQ62, GN = Decr1): 0.375
1MT vs Control: Succinyl-CoA: 3-ketoacid coenzyme A transferase 1, mitochondrial (Q9D0K2, GN = Oxct1): 0.75
1MT vs Control: Cytosolic non-specific dipeptidase (Q9D1A2, GN = Cndp2): 0.8
1MT vs Control: Protein-cysteine N-palmitoyltransferase HHAT-like protein (Q9D1G3, GN = Hhatl): 0.4545
1MT vs Control: Dihydrolipoyllysine-residue succinyltransferase component of 2-oxoglutarate dehydrogenase complex, mitochondrial (Q9D2G2, GN = Dlst): 0.4857
1MT vs Control: Ribose-phosphate pyrophosphokinase 1 (Q9D7G0, GN = Prps1): 0.8723
1MT vs Control: Pyruvate dehydrogenase E1 component subunit beta, mitochondrial (Q9D051, GN = Pdhb): 0.6279
1MT vs Control: 14 kDa phosphohistidine phosphatase (Q9DAK9, GN = Phpt1): 0.75
1MT vs Control: Trans-1,2-dihydrobenzene-1,2-diol dehydrogenase (Q9DBB8, GN = Dhdh): 0.8333
1MT vs Control: Methylmalonate-semialdehyde dehydrogenase [acylating], mitochondrial (Q9EQ20, GN = Aldh6a1): 0.65
1MT vs Control: Ubiquitin carboxyl-terminal hydrolase 14 (Q9JMA1, GN = Usp14): 0.8
1MT vs Control: Prolyl endopeptidase (Q9QUR6, GN = Prep): 0.5
1MT vs Control: S-formylglutathione hydrolase (Q9R0P3, GN = Esd): 0.8929
1MT vs Control: Glycogen phosphorylase, muscle form (Q9WUB3, GN = Pygm): 0.9185
1MT vs Control: Succinyl-CoA ligase [ADP-forming] subunit beta, mitochondrial (Q9Z2I9, GN = Sucla2): 0.52
1MT vs Control: NADH dehydrogenase [ubiquinone] flavoprotein 1, mitochondrial (Q91YT0, GN = Ndufv1): 0.4
Compound: Cn1cc(C[C@@H](N)C(=O)O)c2ccccc21 [1MT]
1MT vs Control: Peroxiredoxin-6 (O08709, GN = Prdx6): 0.7083
1MT vs Control: Proteasome subunit beta type-1 (O09061, GN = Psmb1): 0.5556
1MT vs Control: Calsequestrin-1 (O09165, GN = Casq1): 0.9036
1MT vs Control: Protein NipSnap homolog 2 (O55126, GN = Gbas): 0.5294
1MT vs Control: Voltage-dependent calcium channel gamma-1 subunit (O70578, GN = Cacng1): 0.75
1MT vs Control: Reticulon-2 (O70622, GN = Rtn2): 0.3
1MT vs Control: Alpha-actinin-3 (O88990, GN = Actn3): 0.8638
1MT vs Control: Complement C3 (P01027, GN = C3): 0.5294
1MT vs Control: Hemoglobin subunit alpha (P01942, GN = Hba): 0.5714
1MT vs Control: Hemoglobin subunit beta-1 (P02088, GN = Hbb-b1): 0.688
1MT vs Control: Myoglobin (P04247, GN = Mb): 0.381
1MT vs Control: Myosin light chain 1/3, skeletal muscle isoform (P05977, GN = Myl1): 0.7007
1MT vs Control: Serum albumin (P07724, GN = Alb): 0.8778
1MT vs Control: Serine protease inhibitor A3K (P07759, GN = Serpina3k): 0.5238
1MT vs Control: Eukaryotic initiation factor 4A-II (P10630, GN = Eif4a2): 0.6
1MT vs Control: Thioredoxin (P10639, GN = Txn): 0.6154
1MT vs Control: Heat shock protein beta-1 (P14602, GN = Hspb1): 0.5385
1MT vs Control: Annexin A6 (P14824, GN = Anxa6): 0.7045
1MT vs Control: Cathepsin D (P18242, GN = Ctsd): 0.8
1MT vs Control: Parvalbumin alpha (P32848, GN = Pvalb): 0.7209
1MT vs Control: Peroxiredoxin-1 (P35700, GN = Prdx1): 0.9138
1MT vs Control: Stress-70 protein, mitochondrial (P38647, GN = Hspa9): 0.4
1MT vs Control: ATP synthase subunit beta, mitochondrial (P56480, GN = Atp5b): 0.6321
1MT vs Control: Elongation factor 1-delta (P57776, GN = Eef1d): 0.8
1MT vs Control: 14-3-3 protein gamma (P61982, GN = Ywhag): 0.5417
1MT vs Control: Cytochrome c, somatic (P62897, GN = Cycs): 0.7778
1MT vs Control: Profilin-1 (P62962, GN = Pfn1): 0.8333
1MT vs Control: 60 kDa heat shock protein, mitochondrial (P63038, GN = Hspd1): 0.2222
1MT vs Control: Eukaryotic translation initiation factor 5A-1 (P63242, GN = Eif5a): 0.8936
1MT vs Control: Spermine synthase (P97355, GN = Sms): 0.5455
1MT vs Control: Myosin regulatory light chain 2, skeletal muscle isoform (P97457, GN = Mylpf): 0.6453
1MT vs Control: 60S acidic ribosomal protein P2 (P99027, GN = Rplp2): 0.7143
1MT vs Control: Tripartite motif-containing protein 72 (Q1XH17, GN = Trim72): 0.9048
1MT vs Control: Secernin-3 (Q3TMH2, GN = Scrn3): 0.6667
1MT vs Control: Trimeric intracellular cation channel type A (Q3TMP8, GN = Tmem38a): 0.6923
1MT vs Control: PDZ and LIM domain protein 5 (Q8CI51, GN = Pdlim5): 0.6667
1MT vs Control: Phosphate carrier protein, mitochondrial (Q8VEM8, GN = Slc25a3): 0.3333
1MT vs Control: Bifunctional purine biosynthesis protein PURH (Q9CWJ9, GN = Atic): 0.8571
1MT vs Control: Cytochrome b-c1 complex subunit 1, mitochondrial (Q9CZ13, GN = Uqcrc1): 0.25
1MT vs Control: Citrate synthase, mitochondrial (Q9CZU6, GN = Cs): 0.5333
1MT vs Control: 60S ribosomal protein L4 (Q9D8E6, GN = Rpl4): 0.6667
1MT vs Control: Cytochrome b-c1 complex subunit 2, mitochondrial (Q9DB77, GN = Uqcrc2): 0.3958
1MT vs Control: Electron transfer flavoprotein subunit beta (Q9DCW4, GN = Etfb): 0.5
1MT vs Control: Plectin (Q9QXS1, GN = Plec): 0.4894
1MT vs Control: Vesicle-associated membrane protein-associated protein B (Q9QY76, GN = Vapb): 0.5333
1MT vs Control: Proteasome subunit alpha type-1 (Q9R1P4, GN = Psma1): 0.375
1MT vs Control: Glycogen [starch] synthase, muscle (Q9Z1E4, GN = Gys1): 0.6275
1MT vs Control: Nucleosome assembly protein 1-like 4 (Q78ZA7, GN = Nap1l4): 0.8571
1MT vs Control: Hemopexin (Q91X72, GN = Hpx): 0.7391
